Key:
[1] = target: Bone morphogenetic protein receptor type-1A (Homo sapiens) (UniProt P36894); assay: Inhibition of BMPR1A (unknown origin) assessed as residual activity at 100 nM by KINOMEscan analysis relative to control
[2] = target: Casein kinase I isoform epsilon (Homo sapiens) (UniProt P49674); assay: Inhibition of CSNK1E (unknown origin) assessed as residual activity at 100 nM by KINOMEscan analysis relative to control
[3] = system: Epidermal growth factor receptor (Homo sapiens), P00533 [UNDEFINED MUTATION]; assay: Inhibition of EGFR E746-A750del mutant (unknown origin) assessed as residual activity at 100 nM by KINOMEscan analysis relative to control
[4] = system: Epidermal growth factor receptor (Homo sapiens), P00533 [L858R]; assay: Inhibition of EGFR L858R mutant (unknown origin) assessed as residual activity at 100 nM by KINOMEscan analysis relative to control
[5] = target: T1, Mitogen-activated protein kinase 15 (Homo sapiens) (UniProt Q8TD08); assay: Inhibition of ERK8 (unknown origin) assessed as residual activity at 100 nM by KINOMEscan analysis relative to control
T1 sequence (whole entry): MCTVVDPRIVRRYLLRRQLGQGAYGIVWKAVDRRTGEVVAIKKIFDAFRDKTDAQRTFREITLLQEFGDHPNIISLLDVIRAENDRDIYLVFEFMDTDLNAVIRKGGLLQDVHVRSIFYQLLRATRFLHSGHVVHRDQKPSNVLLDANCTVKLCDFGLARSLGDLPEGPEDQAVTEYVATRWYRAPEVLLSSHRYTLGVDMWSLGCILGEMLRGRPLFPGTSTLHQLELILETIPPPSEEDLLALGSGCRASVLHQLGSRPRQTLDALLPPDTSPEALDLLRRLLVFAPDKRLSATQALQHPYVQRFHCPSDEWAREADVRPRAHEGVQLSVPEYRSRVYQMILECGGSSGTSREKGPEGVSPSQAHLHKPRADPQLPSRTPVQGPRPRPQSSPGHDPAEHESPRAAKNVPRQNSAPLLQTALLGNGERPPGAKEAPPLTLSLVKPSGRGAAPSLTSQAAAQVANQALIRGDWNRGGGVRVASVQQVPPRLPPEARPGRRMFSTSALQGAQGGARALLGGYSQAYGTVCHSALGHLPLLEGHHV

[6] = target: Tyrosine-protein kinase JAK2 (Homo sapiens) (UniProt O60674); assay: Inhibition of JAK2 JH1 catalytic domain (unknown origin) assessed as residual activity at 100 nM by KINOMEscan analysis relative to control
[7] = species on record: Homo sapiens; assay: Inhibition of JNK3 (unknown origin) assessed as residual activity at 100 nM by KINOMEscan analysis relative to control
[8] = system: Leucine-rich repeat serine/threonine-protein kinase 2 (Homo sapiens), Q5S007 [G2019S]; assay: Inhibition of LRRK2 G2019S mutant (unknown origin) assessed as residual activity at 100 nM by KINOMEscan analysis relative to control
[9] = target: Serine/threonine-protein kinase MARK2 (Homo sapiens) (UniProt Q7KZI7); assay: Inhibition of MARK2 (unknown origin) assessed as residual activity at 100 nM by KINOMEscan analysis relative to control
[10] = target: T2, Serine/threonine-protein kinase Nek10 (Homo sapiens) (UniProt Q6ZWH5); assay: Inhibition of NEK10 (unknown origin) assessed as residual activity at 100 nM by KINOMEscan analysis relative to control
T2 sequence (whole entry): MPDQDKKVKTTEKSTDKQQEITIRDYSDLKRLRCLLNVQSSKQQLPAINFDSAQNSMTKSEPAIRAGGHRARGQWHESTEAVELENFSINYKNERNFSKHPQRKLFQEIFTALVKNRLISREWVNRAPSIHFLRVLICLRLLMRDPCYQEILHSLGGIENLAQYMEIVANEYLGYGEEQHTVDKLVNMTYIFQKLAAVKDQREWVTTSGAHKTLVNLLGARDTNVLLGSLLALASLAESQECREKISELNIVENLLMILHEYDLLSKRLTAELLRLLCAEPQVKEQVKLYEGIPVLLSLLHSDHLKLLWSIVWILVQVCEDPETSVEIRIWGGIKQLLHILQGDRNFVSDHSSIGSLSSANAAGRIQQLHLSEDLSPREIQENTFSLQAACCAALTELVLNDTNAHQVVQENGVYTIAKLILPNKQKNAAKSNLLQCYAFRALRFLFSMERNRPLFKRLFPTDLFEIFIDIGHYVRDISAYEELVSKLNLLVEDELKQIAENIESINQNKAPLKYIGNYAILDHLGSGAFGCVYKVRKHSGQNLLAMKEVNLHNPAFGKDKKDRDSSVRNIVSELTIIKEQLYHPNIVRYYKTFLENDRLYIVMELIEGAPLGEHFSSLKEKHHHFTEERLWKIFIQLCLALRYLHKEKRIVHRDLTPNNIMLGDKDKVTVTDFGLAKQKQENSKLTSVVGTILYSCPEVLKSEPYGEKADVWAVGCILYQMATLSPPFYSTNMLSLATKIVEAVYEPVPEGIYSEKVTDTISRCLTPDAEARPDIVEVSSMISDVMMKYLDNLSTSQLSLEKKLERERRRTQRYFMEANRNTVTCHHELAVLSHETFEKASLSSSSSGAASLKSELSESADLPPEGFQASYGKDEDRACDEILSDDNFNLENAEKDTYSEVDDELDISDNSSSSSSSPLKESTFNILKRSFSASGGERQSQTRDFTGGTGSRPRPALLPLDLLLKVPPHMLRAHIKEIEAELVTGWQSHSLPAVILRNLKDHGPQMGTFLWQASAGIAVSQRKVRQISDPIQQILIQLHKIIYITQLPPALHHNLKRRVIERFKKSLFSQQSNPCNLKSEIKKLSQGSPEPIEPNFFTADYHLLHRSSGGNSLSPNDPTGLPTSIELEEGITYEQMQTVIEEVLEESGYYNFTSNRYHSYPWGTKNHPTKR

[11] = target: Cyclin-dependent kinase 2 homolog (Plasmodium falciparum (isolate K1 / Thailand)) (UniProt Q07785); assay: Inhibition of Plasmodium falciparum PK5 assessed as residual activity at 100 nM by KINOMEscan analysis relative to control
[12] = target: Ribosomal protein S6 kinase alpha-5 (Homo sapiens) (UniProt O75582); assay: Inhibition of N-terminal RPS6KA5 kinetic domain 1 (unknown origin) assessed as residual activity at 100 nM by KINOMEscan analysis relative to control
Chain of Ribosomal protein S6 kinase alpha-5 (Homo sapiens) (O75582 whole entry, looked up, the tested form may be a part): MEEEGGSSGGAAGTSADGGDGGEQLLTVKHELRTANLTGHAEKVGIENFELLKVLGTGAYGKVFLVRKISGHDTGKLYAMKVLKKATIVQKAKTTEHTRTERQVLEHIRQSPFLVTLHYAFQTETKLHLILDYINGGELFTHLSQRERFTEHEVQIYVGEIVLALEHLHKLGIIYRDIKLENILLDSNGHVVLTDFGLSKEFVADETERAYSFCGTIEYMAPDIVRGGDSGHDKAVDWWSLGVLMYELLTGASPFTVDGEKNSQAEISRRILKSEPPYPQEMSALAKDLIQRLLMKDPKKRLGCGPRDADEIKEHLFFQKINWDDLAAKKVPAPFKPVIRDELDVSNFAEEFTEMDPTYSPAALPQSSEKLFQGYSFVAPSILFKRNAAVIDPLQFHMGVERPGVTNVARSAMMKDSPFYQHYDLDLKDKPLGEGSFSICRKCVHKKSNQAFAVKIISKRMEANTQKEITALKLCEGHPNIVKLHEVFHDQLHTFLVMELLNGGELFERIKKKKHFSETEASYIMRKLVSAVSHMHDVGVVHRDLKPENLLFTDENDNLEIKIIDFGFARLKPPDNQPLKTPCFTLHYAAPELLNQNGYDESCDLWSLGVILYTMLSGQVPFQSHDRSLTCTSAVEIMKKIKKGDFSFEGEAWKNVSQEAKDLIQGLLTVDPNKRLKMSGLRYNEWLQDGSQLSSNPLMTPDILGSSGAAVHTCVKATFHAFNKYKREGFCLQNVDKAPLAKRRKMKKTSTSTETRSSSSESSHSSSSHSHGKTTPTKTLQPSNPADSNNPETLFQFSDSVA

[13] = target: Ribosomal protein S6 kinase alpha-6 (Homo sapiens) (UniProt Q9UK32); assay: Inhibition of N-terminal RSK4 […] domain 1 (unknown origin) assessed as residual activity at 100 nM by KINOMEscan analysis relative to control
Chain of Ribosomal protein S6 kinase alpha-6 (Homo sapiens) (Q9UK32 whole entry): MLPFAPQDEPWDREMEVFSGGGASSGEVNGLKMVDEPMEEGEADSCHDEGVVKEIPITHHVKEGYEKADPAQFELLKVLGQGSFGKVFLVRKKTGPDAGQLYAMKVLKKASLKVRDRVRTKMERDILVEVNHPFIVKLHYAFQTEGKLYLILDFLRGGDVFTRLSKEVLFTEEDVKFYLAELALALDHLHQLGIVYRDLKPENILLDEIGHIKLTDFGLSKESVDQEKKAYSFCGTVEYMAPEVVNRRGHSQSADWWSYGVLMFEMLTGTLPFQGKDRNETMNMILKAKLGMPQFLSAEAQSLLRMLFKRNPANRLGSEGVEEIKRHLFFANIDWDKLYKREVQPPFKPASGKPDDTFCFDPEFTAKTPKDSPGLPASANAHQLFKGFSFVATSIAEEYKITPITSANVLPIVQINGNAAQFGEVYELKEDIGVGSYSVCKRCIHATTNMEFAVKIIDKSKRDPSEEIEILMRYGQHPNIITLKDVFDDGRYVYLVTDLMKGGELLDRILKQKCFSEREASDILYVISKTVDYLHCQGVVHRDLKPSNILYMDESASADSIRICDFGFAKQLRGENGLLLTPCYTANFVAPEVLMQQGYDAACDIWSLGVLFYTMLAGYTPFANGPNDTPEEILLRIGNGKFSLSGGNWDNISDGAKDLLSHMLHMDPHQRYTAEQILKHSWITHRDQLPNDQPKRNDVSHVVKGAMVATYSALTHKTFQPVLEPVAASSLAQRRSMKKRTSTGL

[14] = target: Tyrosine-protein kinase receptor Tie-1 (Homo sapiens) (UniProt P35590); assay: Inhibition of TIE1 (unknown origin) assessed as residual activity at 100 nM by KINOMEscan analysis relative to control
Chain of Tyrosine-protein kinase receptor Tie-1 (Homo sapiens) (P35590 whole entry): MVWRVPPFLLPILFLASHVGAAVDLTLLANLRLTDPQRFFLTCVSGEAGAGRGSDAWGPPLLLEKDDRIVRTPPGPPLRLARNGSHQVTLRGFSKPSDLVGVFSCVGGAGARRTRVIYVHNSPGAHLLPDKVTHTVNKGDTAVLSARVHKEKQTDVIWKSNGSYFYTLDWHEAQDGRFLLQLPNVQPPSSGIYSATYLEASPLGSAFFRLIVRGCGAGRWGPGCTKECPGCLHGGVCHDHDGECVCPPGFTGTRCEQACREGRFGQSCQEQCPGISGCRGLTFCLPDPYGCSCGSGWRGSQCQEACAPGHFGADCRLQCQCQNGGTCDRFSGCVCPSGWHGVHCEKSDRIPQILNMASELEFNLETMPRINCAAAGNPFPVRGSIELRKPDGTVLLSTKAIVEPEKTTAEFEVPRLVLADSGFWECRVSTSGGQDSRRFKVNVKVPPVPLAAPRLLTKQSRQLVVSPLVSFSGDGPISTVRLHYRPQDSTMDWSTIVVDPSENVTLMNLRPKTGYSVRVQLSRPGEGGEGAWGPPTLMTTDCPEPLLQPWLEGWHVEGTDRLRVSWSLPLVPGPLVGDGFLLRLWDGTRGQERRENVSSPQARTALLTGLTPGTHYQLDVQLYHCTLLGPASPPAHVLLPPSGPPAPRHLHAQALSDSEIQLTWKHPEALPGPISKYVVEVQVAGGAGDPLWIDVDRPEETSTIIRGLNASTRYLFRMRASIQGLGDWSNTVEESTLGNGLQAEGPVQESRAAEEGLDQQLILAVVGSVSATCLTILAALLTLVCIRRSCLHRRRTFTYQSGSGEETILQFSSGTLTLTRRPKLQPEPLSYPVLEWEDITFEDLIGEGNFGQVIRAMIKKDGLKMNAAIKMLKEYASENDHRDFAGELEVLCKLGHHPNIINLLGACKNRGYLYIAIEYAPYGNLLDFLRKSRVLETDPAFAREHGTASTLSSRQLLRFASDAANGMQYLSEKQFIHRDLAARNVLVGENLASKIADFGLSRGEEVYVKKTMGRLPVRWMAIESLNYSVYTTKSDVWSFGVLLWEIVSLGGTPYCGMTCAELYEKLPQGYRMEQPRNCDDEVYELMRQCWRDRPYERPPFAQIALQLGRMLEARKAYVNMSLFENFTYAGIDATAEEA

[15] = target: Serine/threonine-protein kinase WNK3 (Homo sapiens) (UniProt Q9BYP7); assay: Inhibition of WNK3 (unknown origin) assessed as residual activity at 100 nM by KINOMEscan analysis relative to control
Chain of Serine/threonine-protein kinase WNK3 (Homo sapiens) (Q9BYP7 whole entry): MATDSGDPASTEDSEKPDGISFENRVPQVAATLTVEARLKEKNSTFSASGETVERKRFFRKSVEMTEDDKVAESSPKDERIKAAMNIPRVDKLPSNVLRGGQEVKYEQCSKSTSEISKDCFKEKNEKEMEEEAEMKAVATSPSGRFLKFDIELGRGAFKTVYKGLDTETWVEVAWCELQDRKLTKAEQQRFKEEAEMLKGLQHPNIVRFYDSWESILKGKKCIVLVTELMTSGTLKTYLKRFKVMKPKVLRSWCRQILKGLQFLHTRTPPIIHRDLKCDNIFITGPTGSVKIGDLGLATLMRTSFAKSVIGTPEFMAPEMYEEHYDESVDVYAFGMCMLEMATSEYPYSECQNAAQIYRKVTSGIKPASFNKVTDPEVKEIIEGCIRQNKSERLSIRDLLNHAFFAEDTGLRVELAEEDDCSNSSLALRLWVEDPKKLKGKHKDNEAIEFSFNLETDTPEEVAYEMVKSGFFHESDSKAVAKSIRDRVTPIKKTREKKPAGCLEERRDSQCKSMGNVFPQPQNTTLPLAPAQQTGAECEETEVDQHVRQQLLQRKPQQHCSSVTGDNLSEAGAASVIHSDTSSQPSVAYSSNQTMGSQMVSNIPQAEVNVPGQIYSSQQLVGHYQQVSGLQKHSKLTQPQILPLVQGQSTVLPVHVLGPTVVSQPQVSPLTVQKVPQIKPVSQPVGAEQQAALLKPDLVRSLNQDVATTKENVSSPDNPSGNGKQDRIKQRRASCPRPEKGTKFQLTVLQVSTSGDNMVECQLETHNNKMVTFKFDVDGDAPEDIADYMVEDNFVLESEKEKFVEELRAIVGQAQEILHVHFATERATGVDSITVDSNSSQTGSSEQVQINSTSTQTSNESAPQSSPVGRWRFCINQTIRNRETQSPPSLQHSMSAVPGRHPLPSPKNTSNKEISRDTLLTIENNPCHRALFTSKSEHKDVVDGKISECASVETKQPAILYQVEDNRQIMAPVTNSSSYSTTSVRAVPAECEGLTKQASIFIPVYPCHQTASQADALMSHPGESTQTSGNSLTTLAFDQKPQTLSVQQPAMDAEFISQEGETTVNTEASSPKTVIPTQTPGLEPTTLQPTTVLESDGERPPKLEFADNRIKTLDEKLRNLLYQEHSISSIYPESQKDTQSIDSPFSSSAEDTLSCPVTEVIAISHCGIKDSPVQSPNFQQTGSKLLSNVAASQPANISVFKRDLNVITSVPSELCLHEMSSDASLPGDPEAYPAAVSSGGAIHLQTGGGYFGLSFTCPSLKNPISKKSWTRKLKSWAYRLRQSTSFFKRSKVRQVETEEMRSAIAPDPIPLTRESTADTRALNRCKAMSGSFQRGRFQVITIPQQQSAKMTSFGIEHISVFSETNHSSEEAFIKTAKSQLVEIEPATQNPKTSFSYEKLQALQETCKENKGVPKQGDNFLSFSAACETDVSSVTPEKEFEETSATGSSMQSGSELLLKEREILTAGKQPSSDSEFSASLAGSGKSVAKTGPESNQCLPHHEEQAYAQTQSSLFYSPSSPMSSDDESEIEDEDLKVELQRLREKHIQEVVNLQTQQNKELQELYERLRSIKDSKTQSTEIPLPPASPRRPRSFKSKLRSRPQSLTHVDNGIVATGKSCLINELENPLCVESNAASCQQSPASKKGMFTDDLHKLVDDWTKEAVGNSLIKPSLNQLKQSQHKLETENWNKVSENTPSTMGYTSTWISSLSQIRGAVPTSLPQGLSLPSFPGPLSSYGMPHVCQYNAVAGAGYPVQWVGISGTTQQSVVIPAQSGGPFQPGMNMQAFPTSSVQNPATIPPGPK

Chain of Bone morphogenetic protein receptor type-1A (Homo sapiens) (P36894 whole entry, canonical isoform): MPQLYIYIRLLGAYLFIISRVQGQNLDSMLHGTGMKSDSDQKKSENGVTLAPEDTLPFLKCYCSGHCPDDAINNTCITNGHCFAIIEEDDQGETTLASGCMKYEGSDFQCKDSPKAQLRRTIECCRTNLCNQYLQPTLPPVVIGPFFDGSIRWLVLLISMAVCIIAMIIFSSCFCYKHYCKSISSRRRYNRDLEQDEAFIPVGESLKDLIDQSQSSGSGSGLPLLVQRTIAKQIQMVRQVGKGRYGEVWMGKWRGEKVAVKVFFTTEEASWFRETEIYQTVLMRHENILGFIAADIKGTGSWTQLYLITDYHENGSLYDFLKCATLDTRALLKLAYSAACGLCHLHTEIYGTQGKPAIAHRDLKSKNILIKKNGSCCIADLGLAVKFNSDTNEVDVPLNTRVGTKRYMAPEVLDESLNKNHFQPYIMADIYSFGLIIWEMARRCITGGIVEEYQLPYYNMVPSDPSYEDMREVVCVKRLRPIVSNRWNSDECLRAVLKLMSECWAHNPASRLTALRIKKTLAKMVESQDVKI

**Q.** With `COc1cc2ncnc(N[C@H](C)c3cccc4ccccc34)c2cc1OC` as the compound, how does the Activity [1] read?
**A.** The Activity was 71%.

**Q.** And the Activity [2]?
**A.** The Activity was 97%.

**Q.** What about the Activity [3] of the same compound?
**A.** Its Activity is 88%.

**Q.** And the Activity [4]?
**A.** Its Activity is 95%.

**Q.** And the Activity [5]?
**A.** Its Activity is 88%.

**Q.** And the Activity [6]?
**A.** Its Activity is 93%.

**Q.** And the Activity [7]?
**A.** The Activity was 77%.

**Q.** What about the Activity [8] of the same compound?
**A.** The Activity was 92%.

**Q.** What about the Activity [9] of the same compound?
**A.** The Activity was 82%.

**Q.** What about the Activity [10] of the same compound?
**A.** Its Activity is 75%.

**Q.** What about the Activity [11] of the same compound?
**A.** The Activity was 100%.

**Q.** What about the Activity [12] of the same compound?
**A.** Its Activity is 93%.

**Q.** What about the Activity [13] of the same compound?
**A.** The Activity was 94%.

**Q.** What about the Activity [14] of the same compound?
**A.** The Activity was 85%.

**Q.** What about the Activity [15] of the same compound?
**A.** Its Activity is 89%.

From ChEMBL document CHEMBL5678818, “Discovery of potent SOS1 inhibitors that block RAS activation via disruption of the RAS-SOS1 interaction” (Proc Natl Acad Sci U S A, 2019)
